Experiments:
Plasma [1] = experiment: Drug level in cynomolgus monkey plasma assessed as compound formation treated with [14C]brivanib alaninate at 10 mg/kg, po administered as single dose via gavage measured after 6 hrs by HPLC analysis; type: ADME, organism-based, Macaca fascicularis; settings: in vivo
[2] = Drug excretion in cynomolgus monkey urine treated with [14C]brivanib alaninate at 10 mg/kg, po administered as single dose via gavage by HPLC analysis; type: ADME, organism-based, Macaca fascicularis; settings: in vivo
[3] = Drug level in Sprague-Dawley rat urine treated with [14C]brivanib alaninate at 100 mg/kg, po administered as single dose via gavage by mass spectrometry; type: ADME, organism-based; settings: in vivo
Plasma [4] = experiment: Drug level in human plasma assessed as compound formation treated with [14C]brivanib alaninate at 800 mg, po administered as single dose via gavage measured after 12 hrs by HPLC analysis; type: ADME, organism-based; settings: in vivo
Homo sapiens [5] = experiment: AUC (0 to 12 hrs) human plasma treated with [14C]brivanib alaninate at 800 mg, po administered as single oral dose by HPLC analysis; type: ADME, organism-based; settings: in vivo
Plasma [6] = experiment: Drug level in Sprague-Dawley rat plasma assessed as compound formation treated with [14C]brivanib alaninate at 100 mg/kg, po administered as single dose via gavage measured after 1 hr by HPLC analysis; type: ADME, organism-based; settings: in vivo
[7] = Drug excretion in cynomolgus monkey feces treated with [14C]brivanib alaninate at 10 mg/kg, po administered as single dose via gavage by HPLC analysis; type: ADME, organism-based, Macaca fascicularis; settings: in vivo
Plasma [8] = experiment: Drug level in cynomolgus monkey plasma assessed as compound formation treated with [14C]brivanib alaninate at 10 mg/kg, po administered as single dose via gavage measured after 4 hrs by HPLC analysis; type: ADME, organism-based, Macaca fascicularis; settings: in vivo
Cynomolgus monkey [9] = experiment: AUC (0 to 12 hrs) cynomolgus monkey plasma treated with [14C]brivanib alaninate at 10 mg/kg, po administered as single oral dose by HPLC analysis; type: ADME, organism-based, Macaca fascicularis; settings: in vivo
Rattus norvegicus [10] = experiment: Drug uptake in Sprague-Dawley rat plasma treated with [14C]brivanib alaninate assessed as AUC (0 to 6 hrs) of total radio activity at 100 mg/kg, po administered as single oral dose by HPLC analysis; type: ADME, organism-based; settings: in vivo
Plasma [11] = experiment: Drug level in human plasma assessed as compound formation treated with [14C]brivanib alaninate at 800 mg, po administered as single dose via gavage measured after 1 hr by HPLC analysis; type: ADME, organism-based; settings: in vivo
Homo sapiens [12] = experiment: Drug uptake in human plasma treated with [14C]brivanib alaninate assessed as AUC (0 to 12 hrs) of total radio activity at 800 mg, po administered as single oral dose by HPLC analysis; type: ADME, organism-based; settings: in vivo
Plasma [13] = experiment: Drug level in cynomolgus monkey plasma assessed as compound formation treated with [14C]brivanib alaninate at 10 mg/kg, po administered as single dose via gavage measured after 12 hrs by HPLC analysis; type: ADME, organism-based, Macaca fascicularis; settings: in vivo
Cynomolgus monkey [14] = experiment: Drug uptake in cynomolgus monkey plasma treated with [14C]brivanib alaninate assessed as AUC (0 to 12 hrs) of total radio activity at 10 mg/kg, po administered as single oral dose by HPLC analysis; type: ADME, organism-based, Macaca fascicularis; settings: in vivo
Plasma [15] = experiment: Drug level in human plasma assessed as compound formation treated with [14C]brivanib alaninate at 800 mg, po administered as single dose via gavage measured after 2 hrs by HPLC analysis; type: ADME, organism-based; settings: in vivo
Plasma [16] = experiment: Drug level in Sprague-Dawley rat plasma assessed as compound formation treated with [14C]brivanib alaninate at 100 mg/kg, po administered as single dose via gavage measured after 6 hrs by HPLC analysis; type: ADME, organism-based; settings: in vivo
[17] = Drug excretion in bile duct-cannulated cynomolgus monkey bile treated with [14C]brivanib alaninate at 10 mg/kg, po administered as single dose via gavage by HPLC analysis; type: ADME, organism-based, Macaca fascicularis; settings: in vivo
[18] = Drug excretion in human urine treated with [14C]brivanib alaninate at 800 mg, po administered as single dose […] by HPLC analysis; type: ADME, organism-based; settings: in vivo
Rattus norvegicus [19] = experiment: AUC (0 to 6 hrs) Sprague-Dawley rat plasma treated with [14C]brivanib alaninate at 100 mg/kg, po administered as single oral dose by HPLC analysis; type: ADME, organism-based; settings: in vivo
[20] = Drug excretion in Sprague-Dawley rat feces treated with [14C]brivanib alaninate at 100 mg/kg, po administered as single dose via gavage by HPLC analysis; type: ADME, organism-based; settings: in vivo
Plasma [21] = experiment: Drug level in cynomolgus monkey plasma assessed as compound formation treated with [14C]brivanib alaninate at 10 mg/kg, po administered as single dose via gavage measured after 2 hrs by HPLC analysis; type: ADME, organism-based, Macaca fascicularis; settings: in vivo
[22] = Drug excretion in bile duct-cannulated rat bile treated with [14C]brivanib alaninate at 100 mg/kg, po administered as single dose via gavage by HPLC analysis; type: ADME, organism-based; settings: in vivo
[23] = Drug excretion in human feces treated with [14C]brivanib alaninate at 800 mg, po administered as single dose […] by HPLC analysis; type: ADME, organism-based; settings: in vivo
Plasma [24] = experiment: Drug level in Sprague-Dawley rat plasma assessed as compound formation treated with [14C]brivanib alaninate at 100 mg/kg, po administered as single dose via gavage measured after 2 hrs by HPLC analysis; type: ADME, organism-based; settings: in vivo
Plasma [25] = experiment: Drug level in human plasma assessed as compound formation treated with [14C]brivanib alaninate at 800 mg, po administered as single dose via gavage measured after 4 hrs by HPLC analysis; type: ADME, organism-based; settings: in vivo
Plasma [26] = experiment: Drug level in cynomolgus monkey plasma assessed as compound formation treated with [14C]brivanib alaninate at 10 mg/kg, po administered as single dose via gavage measured after 1 hr by HPLC analysis; type: ADME, organism-based, Macaca fascicularis; settings: in vivo
Plasma [27] = experiment: Drug level in human plasma assessed as compound formation treated with [14C]brivanib alaninate at 800 mg, po administered as single dose via gavage measured after 8 hrs by HPLC analysis; type: ADME, organism-based; settings: in vivo
[28] = Drug excretion in Sprague-Dawley rat urine treated with [14C]brivanib alaninate at 100 mg/kg, po administered as single dose via gavage by HPLC analysis; type: ADME, organism-based; settings: in vivo
[29] = molecular target: Vascular endothelial growth factor receptor 2 (Homo sapiens, UniProt P35968); experiment: Inhibition of human recombinant VEGFR-2
[30] = molecular target: Fibroblast growth factor receptor 1 (Homo sapiens, UniProt P11362); experiment: Inhibition of human recombinant FGFR-1
[31] = Drug level in cynomolgus monkey urine treated with [14C]brivanib alaninate at 10 mg/kg, po administered as single dose via gavage by mass spectrometry; type: ADME, organism-based, Macaca fascicularis; settings: in vivo

Chain of Fibroblast growth factor receptor 1 (P11362 whole entry): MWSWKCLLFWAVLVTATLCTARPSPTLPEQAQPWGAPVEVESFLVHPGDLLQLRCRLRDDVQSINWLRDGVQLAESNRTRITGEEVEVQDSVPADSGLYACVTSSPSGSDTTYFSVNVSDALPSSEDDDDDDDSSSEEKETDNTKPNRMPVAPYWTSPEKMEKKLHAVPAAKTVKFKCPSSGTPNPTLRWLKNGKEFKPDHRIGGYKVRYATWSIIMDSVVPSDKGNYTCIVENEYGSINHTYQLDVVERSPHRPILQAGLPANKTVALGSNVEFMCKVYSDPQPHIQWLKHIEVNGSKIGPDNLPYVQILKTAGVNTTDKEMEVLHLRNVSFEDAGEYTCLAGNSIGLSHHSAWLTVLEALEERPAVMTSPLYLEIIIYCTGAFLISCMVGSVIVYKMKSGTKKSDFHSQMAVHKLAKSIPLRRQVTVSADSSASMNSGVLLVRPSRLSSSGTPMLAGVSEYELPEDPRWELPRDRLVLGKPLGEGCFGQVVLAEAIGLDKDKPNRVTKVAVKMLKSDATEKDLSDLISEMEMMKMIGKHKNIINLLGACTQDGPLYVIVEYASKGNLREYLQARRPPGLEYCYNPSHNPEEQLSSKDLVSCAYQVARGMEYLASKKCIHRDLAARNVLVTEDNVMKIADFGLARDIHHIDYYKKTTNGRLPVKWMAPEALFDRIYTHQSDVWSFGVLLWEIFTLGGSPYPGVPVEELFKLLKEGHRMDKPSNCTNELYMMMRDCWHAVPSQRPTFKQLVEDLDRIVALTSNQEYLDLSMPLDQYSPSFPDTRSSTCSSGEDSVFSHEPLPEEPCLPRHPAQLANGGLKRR
Chain of Vascular endothelial growth factor receptor 2 (P35968 whole entry): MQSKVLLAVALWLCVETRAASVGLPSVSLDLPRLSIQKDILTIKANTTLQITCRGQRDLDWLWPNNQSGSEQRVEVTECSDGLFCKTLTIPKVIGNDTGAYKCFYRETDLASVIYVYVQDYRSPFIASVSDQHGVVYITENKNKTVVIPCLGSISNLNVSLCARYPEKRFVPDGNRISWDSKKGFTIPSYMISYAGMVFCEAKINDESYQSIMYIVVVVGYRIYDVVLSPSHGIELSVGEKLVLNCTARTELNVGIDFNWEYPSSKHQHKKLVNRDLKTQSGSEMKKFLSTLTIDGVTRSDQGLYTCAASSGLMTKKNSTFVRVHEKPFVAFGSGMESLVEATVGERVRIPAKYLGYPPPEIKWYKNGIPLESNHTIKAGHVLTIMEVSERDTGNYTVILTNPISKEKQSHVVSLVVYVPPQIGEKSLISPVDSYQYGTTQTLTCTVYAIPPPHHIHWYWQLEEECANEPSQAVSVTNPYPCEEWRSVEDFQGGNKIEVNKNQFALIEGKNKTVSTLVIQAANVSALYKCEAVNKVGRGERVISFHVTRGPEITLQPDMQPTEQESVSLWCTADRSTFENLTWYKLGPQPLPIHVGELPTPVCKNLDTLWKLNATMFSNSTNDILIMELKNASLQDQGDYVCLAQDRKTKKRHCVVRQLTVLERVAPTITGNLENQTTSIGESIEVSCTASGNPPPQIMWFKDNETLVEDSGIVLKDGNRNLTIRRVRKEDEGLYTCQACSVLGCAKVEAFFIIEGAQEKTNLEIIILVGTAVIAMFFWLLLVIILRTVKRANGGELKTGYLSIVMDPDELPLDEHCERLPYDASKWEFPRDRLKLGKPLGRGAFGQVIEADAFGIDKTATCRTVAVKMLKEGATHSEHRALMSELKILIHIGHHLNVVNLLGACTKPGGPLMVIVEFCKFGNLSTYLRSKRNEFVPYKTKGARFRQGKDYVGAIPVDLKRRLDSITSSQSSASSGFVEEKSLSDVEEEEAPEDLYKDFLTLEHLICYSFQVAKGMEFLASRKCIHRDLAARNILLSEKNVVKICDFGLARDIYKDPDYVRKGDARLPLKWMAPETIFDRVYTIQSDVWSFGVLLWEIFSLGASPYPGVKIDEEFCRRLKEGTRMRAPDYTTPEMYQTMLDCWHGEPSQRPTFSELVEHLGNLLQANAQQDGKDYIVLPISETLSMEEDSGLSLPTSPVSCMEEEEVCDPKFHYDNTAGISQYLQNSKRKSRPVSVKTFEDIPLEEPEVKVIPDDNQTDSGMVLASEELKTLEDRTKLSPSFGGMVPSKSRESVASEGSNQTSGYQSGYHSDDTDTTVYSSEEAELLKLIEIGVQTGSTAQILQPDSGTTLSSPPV

Compound recovery (Plasma [1]) | Compound recovery [2] | Compound recovery (Plasma [4]) | Compound recovery (Plasma [6]) | Compound recovery [7] | Compound recovery (Plasma [8]) | Compound recovery (Plasma [11]) | Compound recovery (Plasma [13]) | Compound recovery (Plasma [15]) | Compound recovery (Plasma [16]) | Compound recovery [17] | Compound recovery [18] | Compound recovery [20] | Compound recovery (Plasma [21]) | Compound recovery [22] | Compound recovery [23] | Compound recovery (Plasma [24]) | Compound recovery (Plasma [25]) | Compound recovery (Plasma [26]) | Compound recovery (Plasma [27]) | SMILES | other results
7.9% | 4.9% | 4.1% | 5.8% | 2.4% | 3.5% | 0.7% | 3% | 2.9% | 4.3% | 10.3% | 3.6% | 4.8% | 1.5% | 1% | 8.3% | 3.1% | 3.6% | 3% | 1.7% | Cc1c(OC[C@@H](C)OS(=O)(=O)O)cn2ncnc(Oc3ccc4[nH]c(CO)cc4c3F)c12 | Compound recovery [3]: metabolite_detected; AUC (Homo sapiens [5]): 1202.5 ugequiv/l.hr; AUC (Cynomolgus monkey [9]): 3272.2 ugequiv/l.hr; AUC metabolite/AUC radiolabel (Rattus norvegicus [10]): 3.9%; AUC metabolite/AUC radiolabel (Homo sapiens [12]): 1.8%; AUC metabolite/AUC radiolabel (Cynomolgus monkey [14]): 4.7%; AUC (Rattus norvegicus [19]): 5443.1 ugequiv/l.hr
9.1% | 0.7% | 8.9% | 30.7% | metabolite_not_detected | 9.4% | 8.8% | 5.7% | 6.7% | 20.9% | 1.9% | metabolite_not_detected | 4.6% | 5.9% | 25.4% | metabolite_not_detected | 26.8% | 4.4% | 2.9% | 7.6% | Cc1cc2c(F)c(Oc3ncnn4cc(OS(=O)(=O)O)c(C)c34)ccc2[nH]1 | AUC (Homo sapiens [5]): 3835.4 ugequiv/l.hr; AUC (Cynomolgus monkey [9]): 5622.3 ugequiv/l.hr; AUC metabolite/AUC radiolabel (Rattus norvegicus [10]): 26.8%; AUC metabolite/AUC radiolabel (Homo sapiens [12]): 5.8%; AUC metabolite/AUC radiolabel (Cynomolgus monkey [14]): 8.1%; AUC (Rattus norvegicus [19]): 37494.4 ugequiv/l.hr; Compound recovery [28]: 2.7%
6.9% | 1.1% | 4.6% | 5.1% | 22% | 8.6% | 6.8% | 3.5% | 7.6% | 5.3% | 10.5% | 0.4% | 12.8% | 6.4% | 0.9% | 7.4% | 5.3% | 11.4% | 3.1% | 4.9% | Cc1c(OC[C@@H](C)O)cn2ncnc(Oc3ccc4[nH]c(C(=O)O)cc4c3F)c12 | AUC (Homo sapiens [5]): 4119.3 ugequiv/l.hr; AUC (Cynomolgus monkey [9]): 5006 ugequiv/l.hr; AUC metabolite/AUC radiolabel (Rattus norvegicus [10]): 9.2%; AUC metabolite/AUC radiolabel (Homo sapiens [12]): 6.3%; AUC metabolite/AUC radiolabel (Cynomolgus monkey [14]): 7.2%; IC50 [29]: > 30 µM; AUC (Rattus norvegicus [19]): 12825.3 ugequiv/l.hr; Compound recovery [28]: 0.5%; IC50 [30]: > 30 µM
 | metabolite_not_detected |  |  | metabolite_not_detected |  |  |  |  |  | metabolite_not_detected | metabolite_not_detected | metabolite_not_detected |  | 1.8% | metabolite_not_detected |  |  |  |  | Cc1c(O)cn2ncnc(Oc3ccc4[nH]c(C(=O)O)cc4c3F)c12 | Compound recovery [3]: metabolite_detected
9.1% | 0.3% | 24.3% | 18.2% | metabolite_not_detected | 4.6% | metabolite_not_detected | 12.5% | 11.3% | 20% | 1.4% | 3.3% | metabolite_not_detected | 3% | 4% | metabolite_not_detected | 22.1% | 20% | 3.3% | 23% | Cc1c(OS(=O)(=O)O)cn2ncnc(Oc3ccc4[nH]c(C(=O)O)cc4c3F)c12 | AUC (Homo sapiens [5]): 9668.9 ugequiv/l.hr; AUC (Cynomolgus monkey [9]): 4597.3 ugequiv/l.hr; AUC metabolite/AUC radiolabel (Rattus norvegicus [10]): 21.1%; AUC metabolite/AUC radiolabel (Homo sapiens [12]): 14.7%; AUC metabolite/AUC radiolabel (Cynomolgus monkey [14]): 6.6%; AUC (Rattus norvegicus [19]): 29545.4 ugequiv/l.hr; Compound recovery [28]: 5.1%
 |  |  |  | 4% |  |  |  |  |  | 4.9% | 2.4% | 5.7% |  | 2.5% | 26.6% |  |  |  |  | Cc1c(OC[C@@H](C)OS(=O)(=O)O)cn2ncnc(Oc3ccc4[nH]c(C(=O)O)cc4c3F)c12 | Compound recovery [31]: metabolite_detected; Compound recovery [28]: metabolite_not_detected
2.6% | 0.2% | metabolite_not_detected | 4.7% | 0.5% | 2.7% | metabolite_not_detected | 3.3% | metabolite_not_detected | 6% | metabolite_not_detected | metabolite_not_detected | 1.8% | 1.7% | 1.4% | metabolite_not_detected | 6.4% | metabolite_not_detected | 0.9% | metabolite_not_detected | Cc1cc2c(F)c(Oc3ncnn4cc(OCC(=O)O)c(C)c34)ccc2[nH]1 | Compound recovery [3]: metabolite_detected
